Laboratory results reported in patent EP4782453A1 (Beyang Therapeutics Co., Ltd., priority 2023, dated 2025).
Like-named read-outs stand apart in the source and are kept apart here.

Columns and labels:
[1] = system: MV-4-11 (carrying MLL-AF4); assay: Inhibition of proliferation of human tumor cells (Alamar Blue, 7 days), MV-4-11; format: cell-based; conditions: Homo sapiens, MV4-11, 168 h, MV-4-11 cells (carrying MLL-AF4), method calls the value GI50
Method in brief: (§1)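 GI50 from Alamar Blue fluorescence after 7-day compound exposure, duplicate wells, using Day-0 and Day-7 0.1% DMSO wells as low and high controls. MV-4-11 in IMDM/10% FBS and MOLM-13 in RPMI-1640/20% FBS at 4,000 cells/well; KG-1a in IMDM/20% FBS at 3,000 cells/well.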

KG-1a (wild-type MLL) = assay: Inhibition of proliferation of human tumor cells (Alamar Blue, 7 days), KG-1a control cell line; format: cell-based; conditions: 168 h, KG-1a cells (wild-type MLL, control cell line), method calls the value GI50
Excerpt: Experimental Example 2: Evaluation of Inhibitory Activity of Compounds Against Proliferation of Human Tumor Cells
• Human acute lymphoblastic leukemia cells MV-4-11, purchased from American Type Culture Collection, Catalog Number: CRL-9591; • Human acute myeloid leukemia cells MOLM-13, purchased from COBIOER BIOSCIENCES CO., LTD, Catalog Number: CBP60678; • Human acute myeloid leukemia cells KG-1a, purchased from American Type Culture Collection, Catalog Number: CCL-246.1; • Inverted Microscope, purchased from Olympus Tokyo; • Countess™ Automated Cell Counter, purchased from Invitrogen, Model: C10281; and • Multilabel Reader, purchased from Bio-Tek, Model: Synergy HT.
MV-4-11 cells were cultured in an IMDM medium containing 10% fetal bovine serum, KG-a cells were cultured in an IMDM medium containing 20% fetal bovine serum, or MOLM-13 cells were cultured in an RPMI-1640 medium containing 20% fetal bovine serum, each supplemented with 100 U·mL^-1 penicillin and 100 µg·mL^-1 streptomycin. These cells were cultured at 37°C with 5% CO2. The suspensions of individual cell lines were prepared in their respective media and seeded into 96-well plates at a density of 4,000 cells/well for MV-4-11 and MOLM-13 cells, or 3,000 cells/well for KG-1a cells. On the day of the experiment, a compound stock solution was diluted in a 3-fold or 4-fold gradient using DMSO. Each gradient-diluted stock solution was then further diluted 250-fold with a complete medium to prepare a series of working solutions at different concentrations. Subsequently, 100 µL of working solution (containing a 2-fold concentration series of the test compound) was added to each well, with duplicate wells set up for each concentration.
Seven days after compound addition (on Day 7), an Alamar Blue assay reagent (MCE, HY-111391 / CS-0040317) was added to measure the fluorescence intensity in each well. Wells containing the cells in the growth medium supplemented with 0.1% DMSO (Day 7) served as high-read control wells. The readouts from the wells containing the cells in the growth medium supplemented with 0.1% DMSO on the day of compound addition (Day 0) served as low-reading control well. GraphPad Prism software was used to calculate the concentration required to inhibit 50% of cell proliferation (GI50), which serves as a cell proliferation inhibition activity index.

[2] = system: MOLM-13 (carrying MLL-AF9); assay: Inhibition of proliferation of human tumor cells (Alamar Blue, 7 days), MOLM-13; format: cell-based; conditions: Homo sapiens, MOLM-13 cells (carrying MLL-AF9), method calls the value GI50
Method in brief: as §1

Menin-MLL = target: T1, Menin-MLL (Homo sapiens, UniProt O00255); assay: Inhibitory activity against Menin-MLL binding (fluorescence polarization); conditions: 150 nM His-Menin, 15 nM FITC-MLL, 25°C for 60 min
T1 construct: His-Menin (M1-L615 end); purchased BIORTUS BP9210
T1 sequence (O00255 1-615 isoform O00255-1): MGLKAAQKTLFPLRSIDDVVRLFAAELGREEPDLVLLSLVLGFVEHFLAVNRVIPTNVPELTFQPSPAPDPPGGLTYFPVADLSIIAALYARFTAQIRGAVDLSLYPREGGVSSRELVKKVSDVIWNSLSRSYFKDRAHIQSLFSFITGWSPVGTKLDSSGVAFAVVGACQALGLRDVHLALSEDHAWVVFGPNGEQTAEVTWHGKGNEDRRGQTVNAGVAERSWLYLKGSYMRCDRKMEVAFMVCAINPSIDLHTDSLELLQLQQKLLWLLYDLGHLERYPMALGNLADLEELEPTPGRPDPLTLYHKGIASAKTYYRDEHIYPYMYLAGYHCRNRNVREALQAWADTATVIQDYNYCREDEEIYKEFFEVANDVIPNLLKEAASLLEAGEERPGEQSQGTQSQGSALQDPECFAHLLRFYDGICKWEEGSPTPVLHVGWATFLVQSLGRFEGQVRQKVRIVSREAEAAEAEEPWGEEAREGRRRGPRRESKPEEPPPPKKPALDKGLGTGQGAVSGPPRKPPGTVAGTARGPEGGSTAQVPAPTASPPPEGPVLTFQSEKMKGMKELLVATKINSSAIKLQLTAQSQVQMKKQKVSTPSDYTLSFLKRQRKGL
Method in brief: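 Fluorescence polarization competition: compound and 150 nM His-tagged menin (residues M1-L615) sit 15 min at 25 °C in pH 7.5 HEPES buffer with NaCl, DTT and BSA; 15 nM FITC-labelled MLL peptide then binds for 60 min. IC50 fitted sigmoidally from mP values, duplicate wells.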

[3] = Menin-MLL IC50, fluorescence polarization
[4] = fluorescence polarization, read-out: Menin-MLL IC50

Row | SMILES | IC50 [1] [nM] | IC50 (KG-1a (wild-type MLL)) [nM] | IC50 ([2]; MOLM-13, 168 h) [nM] | IC50 (Menin-MLL; [3]) [nM] | IC50 ([2]; 168 h) [nM] | IC50 (Menin-MLL; [4]) [nM] | IC50 (Menin-MLL; read-out: Menin-MLL IC50, fluorescence polarization) [nM]
1 | CCN(C(=O)c1cc(F)ccc1-c1cc([C@H]2CC[C@@H](NCc3ccc(-c4cc(OC)c(OC)nn4)cc3)CC2)cn2cncc12)C(C)C [Example 18-1, N-ethyl-5-fluoro-N-(isopropyl)-2-{6-[(1s,4s)-4-({[4-(5,6-dimethoxypyridazin-3-yl)phenyl]methyl}amino)cyclohexyl]imidazo[1,5-a]pyridin-8-yl}benzamide] | 18 | 9700 | 61 | 6 | – | – | –
2 | Cc1cncc2c(-c3ccc(F)cc3C(=O)N(CC(F)F)C(C)C)cc(CC3CN(CC4CCOCC4)C3)n12 [Example 206, N-(2,2-difluoroethyl)-5-fluoro-2-[4-methyl-6-({1-[(oxacyclohexan-4-yl)methyl]azacyclobutan-3-yl}methyl)pyrrolo[1,2-a]pyrazin-8-yl]-N-(isopropyl)benzamide] | 3.5 | 20000 | – | – | 15 | 3.5 | –
3 | Cc1nc(F)c2c(-c3ccc(F)cc3C(=O)N3CCOC[C@H]3C)cc(C3CN([C@@H](C)C4CCN(C(=O)CC#N)CC4)C3)cn12 [Example 263-2] | 5.3 | 20000 | – | – | 13 | 7 | –
4 | CCC(=O)N1CCC(CN2CC(Cc3cc(-c4ccc(F)cc4C(=O)N4CCOC[C@H]4C)c4cncc(C)n34)C2)CC1 [Example 287] | 9 | 20000 | – | – | 48 | 6 | –
5 | Cc1nc(F)c2c(-c3ccc(F)cc3C(=O)N3CCOC[C@H]3C)cc(C3CN([C@H](CC[C@@H]4CNCCO4)C(C)C)C3)cn12 [Example 245-1, (3R)-4-[5-fluoro-2-(1-fluoro-3-methyl-6-{1-[(3R)-4-methyl-1-[(2R)-morpholin-2-yl]pentan-3-yl]azacyclobutan-3-yl}imidazo[1,5-a]pyridin-8yl)benzoyl]-3-methylmorpholine] | 6.6 | 20000 | – | – | 40 | 8.5 | –
6 | CCN(C(=O)c1cc(F)ccc1-c1cc(C2CCN(CCc3ccc(-c4cc(OC)c(OC)nn4)cc3)CC2)cn2cncc12)C(C)C [Compound 42, 2-[6-(1-{2-[4-(5,6-dimethoxypyridazin-3-yl)phenyl]ethyl}piperidin-4-yl)imidazo[1,5-a]pyridin-8-yl]-N-ethyl-5-fluoro-N-(isopropyl)benzamide] | 3.3 | 3300 | – | – | 26 | 3.5 | –
7 | CCN(C(=O)c1cc(F)ccc1-c1cc(C2CN(C(=O)C3NC4CCC3CC4)C2)cn2c(C)ncc12)C(C)C [Example 90, N-ethyl-5-fluoro-2-(3-methyl-6-{1-[(1R,3S,4S)-2-azabicyclo[2.2.2]octan-3-carbonyl]azacyclobutan-3-yl}imidazo[1,5-a]pyridin-8-yl)-N-(isopropyl)benzamide] | 20 | 20000 | 99 | 11 | – | – | –
8 | CCS(=O)(=O)N[C@H]1CC[C@H](CN2CC(c3cc(-c4ccc(F)cc4C(=O)N4CCOC[C@H]4C)c4c(F)nc(C)n4c3)C2)CC1 [Example 145, N-[(1r,4r)-4-{[3-(1-fluoro-8-{4-fluoro-2-[(3R)-3-methylmorpholin-4-carbonyl]phenyl}-3-methylimidazo[1,5-a]pyridin-6-yl)azacyclobutan-1-yl]methyl}cyclohexyl]ethan-1-sulfonamide] | 13 | 19000 | 29.5 | 18 | – | – | –
9 | CCN(C(=O)c1cc(F)ccc1-c1cc(C2CN(CC3CCN(C(C)=O)CC3)C2)cn2c(C)ncc12)C(C)C [Example 289, 2-(6-{1-[(1-acetylpiperidin-4-yl)methyl]azacyclobutan-3-yl}-3-methylimidazo[1,5-a]pyridin-8-yl)-N-ethyl-5-fluoro-N-(isopropyl)benzamide] | 11 | 20000 | – | – | 45 | 10 | –
10 | CCN(C(=O)c1cc(F)ccc1-c1cc(C2CCN(C[C@H]3CC[C@H](NS(=O)(=O)CC)CC3)C2)cc2c1cnn2C)C(C)C (some centres unmarked) [Example 15, N-ethyl-5-fluoro-2-[1-methyl-6-(1-{[(1r,4r)-4-ethanesulfonamidocyclohexyl]methyl}pyrrolidin-3-yl)-1H-indazol-4-yl]-N-isopropylbenzamide] | 23 | 17000 | – | 11.5 | – | – | –
11 | CCN(C(=O)c1cc(F)ccc1-c1cc([C@H]2CCN(C[C@H]3CC[C@H](NS(=O)(=O)CC)CC3)C2)cn2cncc12)C(C)C [Example 22-1, N-ethyl-5-fluoro-N-isopropyl-2-{6-[(3R)-1-{[(1r,4r)-4-ethanesulfonamidocyclohexyl]methyl}pyrrolidin-3-yl]imidazo[1,5-a]pyridin-8-yl}benzamide] | 79 | 20000 | – | 23 | – | – | –
12 | CCS(=O)(=O)N[C@H]1CC[C@H](CN2CC(c3cc(-c4ccc(F)cc4C(=O)N4[C@H](C)COC[C@H]4C)c4cnn(C)c4c3)C2)CC1 [Example 168] | 32 | 20000 | 104 | 32.5 | – | – | –
13 | Cc1ncc2c(-c3ccc(F)cc3C(=O)N(C(C)C)C3CC3)cc(N3CCN(C(=O)C4NC5CCC4CC5)CC3)cn12 [Example 72, N-cyclopropyl-5-fluoro-2-(3-methyl-6-{4-[(1R,3S,4S)-2-azabicyclo[2.2.2]octan-3-carbonyl]piperazin-1-yl}imidazo[1,5-a]pyridin-8-yl)-N-(isopropyl)benzamide] | 57 | 20000 | – | 54 | – | – | –
14 | COCCN(C)CCCC(C(C)C)N1CC(c2cc(-c3ccc(F)cc3C(=O)N3CCOC[C@H]3C)c3cnn(C)c3c2)C1 (some centres unmarked) [Example 162] | 27 | 7000 | – | – | 67 | 24 | –
15 | CCN(C(=O)c1cc(F)ccc1-c1cc(C2=CCC(NCc3ccc(-c4cc(OC)c(OC)nn4)cc3)CC2)cn2cncc12)C(C)C (centres unmarked) [Example 17] | 17 | 20000 | – | – | – | 9.5 | –
16 | CCN(C(=O)c1cc(F)ccc1-c1cc(C2=CCC(NCc3ccc4oc(=O)[nH]c4c3)CC2)cn2cncc12)C(C)C (centres unmarked) [Example 16, N-ethyl-5-fluoro-2-[6-(4-{[(2-oxo-2,3-dihydro-l,3-benzoxazol-5-yl)methyl]amino}cyclohexyl-1-ene-1-yl)imidazo[1,5-a]pyridin-8-yl]-N-isopropylbenzamide] | 14 | 20000 | – | – | – | – | 14.5
17 | CCN(C(=O)c1cc(F)ccc1-c1cc(N2CCC(NCc3ccc(-c4cc(OC)c(OC)nn4)cc3F)CC2)cn2cncc12)C(C)C [Example 20] | 54 | 20000 | – | – | – | 45 | –
